Patent publication US9321776B2, “Isochromene derivatives as phoshoinositide 3-kinases inhibitors” (CHIESI FARMACEUTICI S.p.A., priority 2013, dated 2016)
Where a name gives a salt, the structure may show the parent alone.

What was measured:
Test in all cases: PI3K enzyme inhibitory activity in the cell free assay (ADP-Glo Kinase Assay)
Format in all cases: biochemical
PI3Kα = biological target: T1, PI3Kα (Homo sapiens, UniProt P42336); conditions: human recombinant PI3Kα, ATP 50 μM; read-out: PI3K alpha inhibition
T1 construct: purchased Millipore Ltd (Billerica, Mass.)
T1 sequence (P42336 whole entry): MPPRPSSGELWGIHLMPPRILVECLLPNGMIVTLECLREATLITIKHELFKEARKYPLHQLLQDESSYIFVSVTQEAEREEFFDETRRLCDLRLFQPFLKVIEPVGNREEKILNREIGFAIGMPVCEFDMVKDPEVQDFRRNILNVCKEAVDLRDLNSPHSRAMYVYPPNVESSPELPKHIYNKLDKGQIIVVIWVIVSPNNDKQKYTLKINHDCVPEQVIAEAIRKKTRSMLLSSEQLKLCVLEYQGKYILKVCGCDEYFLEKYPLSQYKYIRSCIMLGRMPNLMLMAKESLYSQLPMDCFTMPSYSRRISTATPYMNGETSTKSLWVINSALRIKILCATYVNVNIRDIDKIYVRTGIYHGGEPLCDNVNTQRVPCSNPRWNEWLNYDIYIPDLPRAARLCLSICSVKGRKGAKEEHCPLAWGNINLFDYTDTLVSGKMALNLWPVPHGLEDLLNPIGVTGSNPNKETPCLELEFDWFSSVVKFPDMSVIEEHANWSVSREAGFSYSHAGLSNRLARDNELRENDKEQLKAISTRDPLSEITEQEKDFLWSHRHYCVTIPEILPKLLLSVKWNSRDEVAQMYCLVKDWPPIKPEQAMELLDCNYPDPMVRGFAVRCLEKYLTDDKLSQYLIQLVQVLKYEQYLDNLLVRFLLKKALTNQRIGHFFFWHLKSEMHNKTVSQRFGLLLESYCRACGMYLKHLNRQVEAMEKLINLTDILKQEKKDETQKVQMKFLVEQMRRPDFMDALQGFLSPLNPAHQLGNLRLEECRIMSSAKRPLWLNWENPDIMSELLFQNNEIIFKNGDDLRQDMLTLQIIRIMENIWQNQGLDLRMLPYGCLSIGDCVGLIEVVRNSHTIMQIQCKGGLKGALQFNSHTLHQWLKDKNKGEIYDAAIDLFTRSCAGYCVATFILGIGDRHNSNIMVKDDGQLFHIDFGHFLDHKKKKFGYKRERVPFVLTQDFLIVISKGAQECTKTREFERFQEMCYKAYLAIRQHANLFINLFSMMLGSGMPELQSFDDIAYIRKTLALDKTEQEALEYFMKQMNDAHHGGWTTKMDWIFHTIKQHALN

PI3Kβ = biological target: T2, PI3Kβ (Homo sapiens, UniProt P42338); conditions: human recombinant PI3Kβ, ATP 100 μM; read-out: PI3K beta inhibition
T2 construct: purchased Millipore Ltd (Billerica, Mass.)
T2 sequence (P42338 whole entry): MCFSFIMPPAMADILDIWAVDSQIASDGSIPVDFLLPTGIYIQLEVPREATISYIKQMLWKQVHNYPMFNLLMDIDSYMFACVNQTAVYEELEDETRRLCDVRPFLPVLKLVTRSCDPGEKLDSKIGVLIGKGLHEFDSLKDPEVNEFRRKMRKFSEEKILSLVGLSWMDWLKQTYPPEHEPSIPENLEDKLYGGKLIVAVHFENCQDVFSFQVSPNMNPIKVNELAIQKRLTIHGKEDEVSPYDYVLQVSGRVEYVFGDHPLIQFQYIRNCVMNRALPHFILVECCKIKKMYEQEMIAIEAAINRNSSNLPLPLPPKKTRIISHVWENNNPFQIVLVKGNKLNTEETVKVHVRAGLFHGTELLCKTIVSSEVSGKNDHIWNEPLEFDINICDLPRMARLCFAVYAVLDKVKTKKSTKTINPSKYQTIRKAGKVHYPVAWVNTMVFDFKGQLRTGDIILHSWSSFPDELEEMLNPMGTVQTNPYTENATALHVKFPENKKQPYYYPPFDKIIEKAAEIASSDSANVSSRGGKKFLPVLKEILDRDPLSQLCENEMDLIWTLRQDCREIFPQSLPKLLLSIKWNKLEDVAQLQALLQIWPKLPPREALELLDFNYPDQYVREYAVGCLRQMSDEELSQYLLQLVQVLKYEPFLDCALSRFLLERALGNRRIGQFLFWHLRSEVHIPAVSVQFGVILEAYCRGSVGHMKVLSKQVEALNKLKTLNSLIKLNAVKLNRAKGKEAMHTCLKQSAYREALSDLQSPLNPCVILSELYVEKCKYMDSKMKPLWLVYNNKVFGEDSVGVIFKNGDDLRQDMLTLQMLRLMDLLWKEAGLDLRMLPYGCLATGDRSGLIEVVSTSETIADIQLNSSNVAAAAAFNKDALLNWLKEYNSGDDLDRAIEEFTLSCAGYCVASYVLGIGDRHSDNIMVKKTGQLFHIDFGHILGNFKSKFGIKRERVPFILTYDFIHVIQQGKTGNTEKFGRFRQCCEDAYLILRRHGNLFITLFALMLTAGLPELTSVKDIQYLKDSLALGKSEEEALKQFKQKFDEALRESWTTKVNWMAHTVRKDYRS

PI3Kδ = biological target: T3, PI3Kδ (Homo sapiens, UniProt O00329); conditions: human recombinant PI3Kδ, ATP 80 μM; read-out: PI3K delta inhibition
T3 construct: purchased Millipore Ltd (Billerica, Mass.)
T3 sequence (O00329 1-1044): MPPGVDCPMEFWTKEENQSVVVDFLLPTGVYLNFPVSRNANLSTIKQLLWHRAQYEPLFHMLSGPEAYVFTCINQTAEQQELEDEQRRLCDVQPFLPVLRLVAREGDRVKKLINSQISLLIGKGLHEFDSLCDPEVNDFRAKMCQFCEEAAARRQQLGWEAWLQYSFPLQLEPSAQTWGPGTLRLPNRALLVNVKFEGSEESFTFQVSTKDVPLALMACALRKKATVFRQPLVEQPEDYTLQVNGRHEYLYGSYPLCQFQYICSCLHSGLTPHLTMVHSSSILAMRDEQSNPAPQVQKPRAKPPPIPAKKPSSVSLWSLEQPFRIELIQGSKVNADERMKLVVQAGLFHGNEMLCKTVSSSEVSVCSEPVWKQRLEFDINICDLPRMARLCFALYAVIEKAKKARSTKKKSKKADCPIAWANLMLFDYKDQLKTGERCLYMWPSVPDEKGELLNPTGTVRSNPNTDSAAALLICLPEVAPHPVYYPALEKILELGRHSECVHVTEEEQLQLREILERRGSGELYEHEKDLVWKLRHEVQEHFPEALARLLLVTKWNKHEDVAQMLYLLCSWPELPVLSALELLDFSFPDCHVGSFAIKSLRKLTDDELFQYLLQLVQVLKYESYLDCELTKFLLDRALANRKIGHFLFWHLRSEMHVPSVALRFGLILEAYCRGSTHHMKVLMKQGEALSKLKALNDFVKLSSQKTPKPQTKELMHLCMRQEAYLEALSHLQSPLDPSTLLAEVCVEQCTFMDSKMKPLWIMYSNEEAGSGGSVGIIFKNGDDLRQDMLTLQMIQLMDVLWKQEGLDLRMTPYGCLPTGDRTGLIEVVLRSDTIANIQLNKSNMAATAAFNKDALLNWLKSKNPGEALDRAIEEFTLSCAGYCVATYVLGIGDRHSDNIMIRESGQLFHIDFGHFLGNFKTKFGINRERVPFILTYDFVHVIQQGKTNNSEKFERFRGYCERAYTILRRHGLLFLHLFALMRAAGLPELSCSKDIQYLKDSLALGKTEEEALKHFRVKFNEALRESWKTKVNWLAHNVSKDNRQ

PI3Kγ = biological target: T4, PI3Kγ (Homo sapiens, UniProt P48736); conditions: human recombinant PI3Kγ, ATP 30 μM; read-out: PI3K gamma inhibition
T4 construct: purchased Millipore Ltd (Billerica, Mass.)
T4 sequence (P48736 whole entry): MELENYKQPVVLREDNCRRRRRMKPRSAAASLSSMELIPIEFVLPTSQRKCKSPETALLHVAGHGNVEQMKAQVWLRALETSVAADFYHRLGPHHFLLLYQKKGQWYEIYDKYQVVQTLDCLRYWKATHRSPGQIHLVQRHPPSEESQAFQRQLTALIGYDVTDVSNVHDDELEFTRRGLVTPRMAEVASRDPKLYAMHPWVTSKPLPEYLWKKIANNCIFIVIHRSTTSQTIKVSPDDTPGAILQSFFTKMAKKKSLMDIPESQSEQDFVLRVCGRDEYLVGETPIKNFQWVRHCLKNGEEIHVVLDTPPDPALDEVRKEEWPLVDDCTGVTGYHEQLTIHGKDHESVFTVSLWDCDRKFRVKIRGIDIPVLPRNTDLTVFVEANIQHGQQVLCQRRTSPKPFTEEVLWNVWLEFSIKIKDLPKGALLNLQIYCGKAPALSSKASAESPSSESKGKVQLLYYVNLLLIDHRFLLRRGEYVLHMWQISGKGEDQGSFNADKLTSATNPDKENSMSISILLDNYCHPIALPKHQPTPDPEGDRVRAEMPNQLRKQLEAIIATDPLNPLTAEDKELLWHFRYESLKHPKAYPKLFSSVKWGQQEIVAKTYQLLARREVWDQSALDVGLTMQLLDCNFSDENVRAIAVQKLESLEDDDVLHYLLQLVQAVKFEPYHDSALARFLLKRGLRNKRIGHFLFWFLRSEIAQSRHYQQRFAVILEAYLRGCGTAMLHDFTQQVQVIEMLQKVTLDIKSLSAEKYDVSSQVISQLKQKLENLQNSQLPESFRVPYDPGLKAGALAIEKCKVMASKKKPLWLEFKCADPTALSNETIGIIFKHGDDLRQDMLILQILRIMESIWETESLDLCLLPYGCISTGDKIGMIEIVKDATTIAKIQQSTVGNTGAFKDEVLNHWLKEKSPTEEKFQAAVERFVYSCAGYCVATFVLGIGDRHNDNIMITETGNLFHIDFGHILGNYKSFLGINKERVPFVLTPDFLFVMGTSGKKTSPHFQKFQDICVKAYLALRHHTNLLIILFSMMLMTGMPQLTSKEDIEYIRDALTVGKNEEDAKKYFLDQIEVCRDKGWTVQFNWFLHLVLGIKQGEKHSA

SMILES	IC50 (PI3Kα)	IC50 (PI3Kβ)	IC50 (PI3Kδ)	IC50 (PI3Kγ)
CC(NC(=O)c1c(N)nn2cccnc12)c1oc(=O)c2ccccc2c1-c1ccccc1 (centres unmarked) [Example 110, 2-amino-N-(1-(1-oxo-4-phenyl-1H-isochromen-3-yl)ethyl)pyrazolo[1,5-a]pyrimidine-3-carboxamide]	10 to 1000 nM	10 to 1000 nM	10 to 1000 nM	10 to 1000 nM
CC(Nc1ncnc2[nH]cnc12)c1oc(=O)c2ccccc2c1-c1cncs1 (centres unmarked) [Example 117, 3-(1-(9H-purin-6-ylamino)ethyl)-4-(thiazol-5-yl)-1H-isochromen-1-one]	10 to 1000 nM	> 1000 nM	< 10 nM	10 to 1000 nM
CC(c1oc(=O)c2ccccc2c1-c1ccccc1)n1nc2ncnc(N)c2c1-c1cc(O)cc(F)c1 (centres unmarked) [Example 118, 3-(1-(4-amino-3-(3-fluoro-5-hydroxyphenyl)-2H-pyrazolo[3,4-d]pyrimidin-2-yl)ethyl)-4-phenyl-1H-isochromen-1-one]	10 to 1000 nM	> 1000 nM	10 to 1000 nM	> 1000 nM
CC(c1oc(=O)c2ccccc2c1-c1cccc(N(C)C)c1)n1nc(-c2cc(O)cc(F)c2)c2c(N)ncnc21 (centres unmarked) [Example 119, 3-(1-(4-amino-3-(3-fluoro-5-hydroxyphenyl)-1H-pyrazolo[3,4-d]pyrimidin-1-yl)ethyl)-4-(3-(dimethylamino)phenyl)-1H-isochromen-1-one]	> 1000 nM	> 1000 nM	10 to 1000 nM	10 to 1000 nM
CC(c1oc(=O)c2ccccc2c1-c1cncs1)n1nc(-c2cc(O)cc(F)c2)c2c(N)ncnc21 (centres unmarked) [Example 120, 3-(1-(4-amino-3-(3-fluoro-5-hydroxyphenyl)-1H-pyrazolo[3,4-d]pyrimidin-1-yl)ethyl)-4-(thiazol-5-yl)-1H-isochromen-1-one]	10 to 1000 nM	10 to 1000 nM	< 10 nM	10 to 1000 nM
CC(c1oc(=O)c2ccccc2c1-c1cnc(N)s1)n1nc(-c2cc(O)cc(F)c2)c2c(N)ncnc21 (centres unmarked) [Example 121, 3-(1-(4-amino-3-(3-fluoro-5-hydroxyphenyl)-1H-pyrazolo[3,4-d]pyrimidin-1-yl)ethyl)-4-(2-aminothiazol-5-yl)-1H-isochromen-1-one hydrochloride]	> 1000 nM	10 to 1000 nM	10 to 1000 nM	10 to 1000 nM

Further lines, results first:

IC50 (PI3Kα)	IC50 (PI3Kβ)	IC50 (PI3Kδ)	IC50 (PI3Kγ)	SMILES
10 to 1000 nM	10 to 1000 nM	< 10 nM	10 to 1000 nM	CC(Nc1ncnc2[nH]cnc12)c1oc(=O)c2ccccc2c1-c1cn[nH]c1 (centres unmarked) [Example 122, 3-(1-(9H-purin-6-ylamino)ethyl)-4-(1H-pyrazol-4-yl)-1H-isochromen-1-one]
10 to 1000 nM	10 to 1000 nM	10 to 1000 nM	10 to 1000 nM	CC(Nc1ncnc(N)c1C#N)c1oc(=O)c2ccccc2c1-c1cn[nH]c1 (centres unmarked) [Example 123, 4-amino-6-((1-(1-oxo-4-(1H-pyrazol-4-yl)-1H-isochromen-3-yl)ethyl)amino)pyrimidine-5-carbonitrile hydrochloride]
> 1000 nM	> 1000 nM	10 to 1000 nM	> 1000 nM	CC(Nc1ncnc2[nH]cnc12)c1oc(=O)c2ccccc2c1-c1cnc(N)nc1 (centres unmarked) [Example 124, 3-(1-(9H-purin-6-ylamino)ethyl)-4-(2-aminopyrimidin-5-yl)-1H-isochromen-1-one]
> 1000 nM	10 to 1000 nM	10 to 1000 nM	10 to 1000 nM	Nc1ncnc2c1c(-c1cc(O)cc(F)c1)nn2CC1=C(c2ccccc2)c2ccccc2CO1 [Example 128, 3-(4-amino-1-((4-phenyl-1H-isochromen-3-yl)methyl)-1H-pyrazolo[3,4-d]pyrimidin-3-yl)-5-fluorophenol]
10 to 1000 nM	10 to 1000 nM	10 to 1000 nM	> 1000 nM	Nc1ncnc2c1c(-c1cncc(O)c1)nn2CC1=C(c2ccccc2)c2ccccc2CO1 [Example 129, 5-(4-amino-1-((4-phenyl-1H-isochromen-3-yl)methyl)-1H-pyrazolo[3,4-d]pyrimidin-3-yl)pyridin-3-ol]
